Source: patent US20150011566A1, “N-PHENYLPIPERAZINE DERIVATIVES THAT ARE ANTAGONISTS OF A1A, A1D ADRENOCEPTORS AND 5-HT1A RECEPTORS FOR THE TREATMENT OF BENIGN PROSTATE HYPERPLASIA, PHARMACEUTICAL COMPOSITIONS CONTAINING THE SAME” (UNIVERSIDADE FEDERAL DO RIO DE JANEIRO-UFRJ, priority 2012, published 2015)
Like-named read-outs stand apart in the source and are kept apart here.

What was measured:
5-HT1A receptors = target: T1, 5-HT1A receptors (Rattus norvegicus, UniProt P19327); test: Binding of [3H]p-MPPF with GTP to 5-HT1A receptors; intrinsic activity (Ki low/Ki high); settings: for Ki low/Ki high: estimate of intrinsic activity; for Ki: antagonist radioligand [3H] p-MPPF in the presence of GTP, read-out: Ki low; for pharmacological classification: from Ki low/Ki high; for Ki value ratios for low and high affinity receptor states: in words
T1 construct: Intrinsic Activity at Native 5-HT1A Receptors; from tissue; host or cells: rat hippocampus membranes
T1 sequence (P19327 1-422): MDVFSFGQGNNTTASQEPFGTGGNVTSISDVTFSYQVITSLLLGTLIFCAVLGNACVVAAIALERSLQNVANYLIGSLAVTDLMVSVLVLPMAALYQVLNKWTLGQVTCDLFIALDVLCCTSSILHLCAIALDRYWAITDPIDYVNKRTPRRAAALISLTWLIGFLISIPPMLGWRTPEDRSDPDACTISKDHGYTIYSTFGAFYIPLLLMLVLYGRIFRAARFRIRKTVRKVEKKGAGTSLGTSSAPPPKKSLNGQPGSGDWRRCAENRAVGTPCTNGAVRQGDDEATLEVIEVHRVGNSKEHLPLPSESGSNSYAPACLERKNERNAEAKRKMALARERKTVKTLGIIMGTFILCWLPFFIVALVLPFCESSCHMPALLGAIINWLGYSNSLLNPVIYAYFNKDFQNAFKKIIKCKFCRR
Procedure: Membrane preparations of rat hippocampus according to previously described by HALL et al (1985) and PEROUTKA (1986) were performed. The homogenization and centrifugation steps were performed identically to that described above for receptors α2A and 5-HT2A receptors.
The binding assays for the 5-HT1A receptors were performed as described previously in the literature and previously standardized in the laboratory through saturation experiments. […] (solvent for dilution of LDT's) for the determination of total binding, or 50 μL non-radioative serotonin at 10 μM to determine the non-specific binding (final volume of 500 μL). Assays were performed in triplicate. […] Assays were performed in triplicate.
(§1) After the incubation period, the reaction was stopped by adding 4 ml of ice-cold solution containing 5 mM Tris (pH 7.4), followed by vacuum filtration on glass fiber filter (GMF 3, Filtrak®) previously soaked with solution 0.5% polyethylenoimine. The filters were washed three times with 4 mL of ice-cold solution containing 5 mM Tris (pH 7.4) under vacuum to remove all free radioligand. Then the filters were dried and placed in vials containing 5 ml scintillation fluid (composition: 4% PPO, 0.1% POPOP w/p in toluene). The radioactivity retained on the filters was then determined in a liquid scintillation counter (Packard Tri-Carb 1600 TR). […] For these receptors were also determined the LC50 and Ki parameters.
The GTP presence displaces the GPCR to a state of low affinity (Lahti et al, 1992). The intrinsic activity of a substance can be estimated using GPCR agonist or antagonist radioligand appropriate to define the affinity of the substance in the state of high and low affinity receptor, respectively.

5-HT2A receptors = target: T2, 5-HT2A receptors (Rattus norvegicus, UniProt P14842); test: [3H]-ketanserin binding to 5-HT2A receptors (rat cortex membranes)
T2 construct: from tissue; host or cells: rat cortex membranes
T2 sequence (P14842 whole entry): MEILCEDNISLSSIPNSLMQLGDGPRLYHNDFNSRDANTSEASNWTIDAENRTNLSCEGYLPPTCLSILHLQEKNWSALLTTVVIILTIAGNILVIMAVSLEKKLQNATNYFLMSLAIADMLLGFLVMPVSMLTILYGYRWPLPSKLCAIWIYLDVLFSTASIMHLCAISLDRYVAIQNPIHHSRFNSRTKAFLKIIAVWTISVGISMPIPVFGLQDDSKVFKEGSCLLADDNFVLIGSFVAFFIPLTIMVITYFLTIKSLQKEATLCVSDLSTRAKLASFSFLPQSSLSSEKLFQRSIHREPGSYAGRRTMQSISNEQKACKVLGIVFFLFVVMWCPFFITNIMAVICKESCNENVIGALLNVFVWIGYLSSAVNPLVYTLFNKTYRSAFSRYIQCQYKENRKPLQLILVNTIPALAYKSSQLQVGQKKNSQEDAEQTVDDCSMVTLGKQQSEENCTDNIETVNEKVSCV
Procedure: Membrane preparations of rat cortex as described previously in the literature were performed. The organs were homogenized in a Potter with the aid of a motor unit (Fisatom) and Teflon piston in the proportion of 20 parts of 50 mM Tris HCl (pH 7.4 at 4° C.) for one piece of material, three times for 30 seconds each time, at intervals the solution was allowed to stand on ice for 1 minute.
Then it was performed a centrifugation at 900×g for 10 minutes at 4° C. It was obtained a […] which was resuspended in solution cold 50 mM Tris-HCl (pH 7.4) and the same procedure was performed once more. The supernatant was then centrifuged at 48,000×g for 10 minutes at 4° C. yielding a pellet which was resuspended at a ratio of 20 parts of 50 mM Tris HCl (pH 7.4 at 4° C.) for one piece of material, and incubated at 37° C. for 10 minutes in order to remove the endogenous neurotransmitters. Finally, centrifugation two times more at 48,000×g was performed for 10 minutes at 4° C., and then the final pellet was resuspended in a solution of 50 mM Tris-HCl (pH 7.4).
The binding assays for 5-HT2A receptors were performed as described in the literature. […] (solvent for dilution of the LDT's), to determine the total binding, or 50 μL non-radioactive ketanserin at 10 μM for the determination of nonspecific binding (final volume of 500 μL). Assays were performed in triplicate.
as §1, with “polyethylenoimine” for “polyethylenoimine.”, “(4%” for “(composition: 4%”, “w/v” for “w/p”, “To” for “For”, “CI50” for “the LC50”

muscarinic receptors = assay type: binding, rat; settings: Table 14; for Ki: Cheng-Prusoff
[1] = Table 10, Cheng-Prusoff, read-out: Ki
[2] = Table 10, read-out: log CI50 ± EPM (converted)
[3] = Table 11, Cheng-Prusoff, read-out: Ki

Compound | IC50 (5-HT2A receptors) [µM] | Ki (5-HT2A receptors) [µM] | -log 1050 (M) (muscarinic receptors) | Ki (muscarinic receptors) [µM] | log IC50 (M) (5-HT2A receptors; Table 11) | Ki (5-HT2A receptors; [3]) [µM] | also measured
CCCCCN1CCN(c2ccccc2OC)CC1 [LDT 65] | 4.57 | 2.93 | 3.3 ± 0.08 | 172 |  |  | Ki low/Ki high (5-HT1A receptors; Table 9): 1.18
COc1ccccc1N1CCN(CCC2CCCCC2)CC1 [LDT 6] |  |  |  |  |  |  | Ki (5-HT2A receptors; [1]): 0.376 µM; IC50 (5-HT2A receptors; [2]): 0.589 µM
CCOc1ccccc1N1CCN(CC)CC1 [LDT 69] |  |  |  |  | −5.02 ± 0.06 M | 6.12 | 
CCN1CCN(c2ccccc2OC)CC1 [LDT 62] |  |  |  |  | −5.00 ± 0.06 M | 6.41 | 
COc1ccccc1N1CCN(CCc2ccccc2)CC1 [LDT 2] | 0.0741 | 0.0474 |  |  |  |  | 
CCN1CCN(c2ccccc2)CC1 [LDT 39] |  |  |  |  | −5.16 ± 0.16 M | 4.44 | 
CCCCCCN1CCN(c2ccccc2OC)CC1 [LDT 66] |  |  | 3.8 ± 0.08 | 54.2 | −5.57 ± 0.16b M | 1.72 | Ki (5-HT1A receptors; Table 9): 0.009 µM; Ki low/Ki high (5-HT1A receptors; Table 9): 1.80
COc1cccc(CCN2CCN(c3ccccc3OC)CC2)c1 [LDT 3] | 0.0708 | 0.0452 | 4.26 ± 0.07 | 56.7 |  |  | pharmacological classification (5-HT1A receptors; Table 13): antagonist; Ki value ratios for low and high affinity receptor states (5-HT1A receptors): close to the unity
COc1ccc(CCN2CCN(c3ccccc3OC)CC2)cc1 [LDT 4] | 0.0692 | 0.0442 |  |  |  |  | 
CCCCCCCCN1CCN(c2ccccc2OC)CC1 [LDT 68] |  |  | 4.5 ± 0.05 | 10.8 | −5.64 ± 0.08b M | 1.47 | Ki (5-HT1A receptors; Table 9): 0.0031 µM; Ki low/Ki high (5-HT1A receptors; Table 9): 0.34
COc1ccc(CCN2CCN(c3ccccc3OC)CC2)cc1OC [LDT 5] | 0.389 | 0.248 | 3.97 ± 0.06 | 108 |  |  | pharmacological classification (5-HT1A receptors; Table 13): antagontist
CCCN1CCN(c2ccccc2OC)CC1 [LDT 63] |  |  |  |  | −4.86 ± 0.13 M | 8.85 | 
CCN1CCN(c2ccccc2O)CC1 [LDT 70] |  |  |  |  | −4.20 ± 0.03a M | 40.4 | 
CCCCCCCN1CCN(c2ccccc2OC)CC1 [LDT 67] |  |  | 4.2 ± 0.02 | 21 | −5.53 ± 0.13b M | 1.89 | Ki (5-HT1A receptors; Table 9): 0.0067 µM; Ki low/Ki high (5-HT1A receptors; Table 9): 0.37
CCOc1ccccc1N1CCN(CCc2ccc3c(c2)OCO3)CC1 [LDT 8] |  |  | 4.48 ± 0.07 | 33.9 |  |  | pharmacological classification (5-HT1A receptors; Table 13): partial antagonist; Ki value ratios for low and high affinity receptor states (5-HT1A receptors): close to the unity; Ki (5-HT1A receptors; Table 13): 0.00062 µM; Ki (5-HT2A receptors; [1]): 0.248 µM; IC50 (5-HT2A receptors; [2]): 0.389 µM
CCCCN1CCN(c2ccccc2OC)CC1 [LDT 64] |  |  |  |  | −5.06 ± 0.09 M | 5.58 | 
